Experimental data published in the NIST ThermoML archive (doi:10.1016/j.jct.2016.02.016).

How the values were obtained:
[1] = xn = mol fraction of the nth substance listed; settings: 100 kPa, Liquid; for speed of sound: Frequency=3 MHz, Sing-around technique in a fixed-path interferometer; for mass density: Vibrating tube method
[2] = refractive index (Na D-line) (dimensionless); xn = mol fraction of the nth substance listed; settings: 100 kPa, Liquid, Standard Abbe refractometry

CC(C)=O [acetone] + CN(C)C=O
Settings	mass density, [1] [kg/m3]	refractive index, [2]	speed of sound, [1] [m/s]
293.15 K, x2 = 0	790.19	1.35845	1183.6
293.15 K, x2 = 0.0503	799.565	1.36286	1200.1
293.15 K, x2 = 0.1057	809.645	1.3677	1218
293.15 K, x2 = 0.1529	818.017	1.37155	1232.9
293.15 K, x2 = 0.1992	826.191	1.37532	1247.6
293.15 K, x2 = 0.2475	834.489	1.37922	1262.6
293.15 K, x2 = 0.2981	843.136	1.38311	1278.3
293.15 K, x2 = 0.3458	851.059	1.38685	1292.6
293.15 K, x2 = 0.3942	859.037	1.3905	1307.4
293.15 K, x2 = 0.4516	868.376	1.39472	1324.6
293.15 K, x2 = 0.4973	875.647	1.398	1338.1
293.15 K, x2 = 0.5476	883.523	1.40156	1352.9
293.15 K, x2 = 0.599	891.359	1.40511	1367.5
293.15 K, x2 = 0.6521	899.454	1.40867	1382.9
293.15 K, x2 = 0.7051	907.302	1.41226	1397.8
293.15 K, x2 = 0.7538	914.504	1.41537	1411.4
293.15 K, x2 = 0.8063	921.993	1.41877	1425.7
293.15 K, x2 = 0.8441	927.346	1.42113	1436
293.15 K, x2 = 0.9022	935.518	1.42474	1451.7
293.15 K, x2 = 0.9471	941.723	1.42742	1463.7
298.15 K, x2 = 0	784.43	1.35386	1163.6
298.15 K, x2 = 0.05	793.781	1.35901	1180.1
298.15 K, x2 = 0.127	807.814	1.3664	1205.5
298.15 K, x2 = 0.1485	811.673	1.36834	1212.5
298.15 K, x2 = 0.1908	819.252	1.37223	1226.2
298.15 K, x2 = 0.2492	829.349	1.37711	1244.6
298.15 K, x2 = 0.297	837.55	1.38103	1259.6
298.15 K, x2 = 0.3399	844.898	1.38441	1273.1
298.15 K, x2 = 0.3997	854.838	1.38893	1291.5
298.15 K, x2 = 0.4461	862.361	1.39235	1305.3
298.15 K, x2 = 0.4978	870.632	1.39595	1320.8
298.15 K, x2 = 0.549	878.71	1.39951	1336.2
298.15 K, x2 = 0.5893	884.968	1.40233	1348.1
298.15 K, x2 = 0.6413	892.941	1.40581	1363.3
298.15 K, x2 = 0.6822	898.928	1.40851	1374.7
298.15 K, x2 = 0.7435	908.066	1.41236	1392.3
298.15 K, x2 = 0.7945	915.398	1.41552	1406.4
298.15 K, x2 = 0.8342	921.109	1.41805	1417.5
298.15 K, x2 = 0.8801	927.621	1.4209	1430.1
298.15 K, x2 = 0.9377	935.649	1.42451	1445.8
303.15 K, x2 = 0	778.63	–	1139.9
303.15 K, x2 = 0.0571	789.325	–	1159
303.15 K, x2 = 0.1075	798.734	–	1175.8
303.15 K, x2 = 0.148	805.999	–	1188.9
303.15 K, x2 = 0.2001	815.316	–	1205.7
303.15 K, x2 = 0.2528	824.518	–	1222.4
303.15 K, x2 = 0.3003	832.657	–	1237.3
303.15 K, x2 = 0.3487	840.866	–	1252.5
303.15 K, x2 = 0.392	848.12	–	1265.8
303.15 K, x2 = 0.4547	858.369	–	1284.8
303.15 K, x2 = 0.4991	865.505	–	1298.1
303.15 K, x2 = 0.5422	872.357	–	1310.9
303.15 K, x2 = 0.6046	882.041	–	1329.2
303.15 K, x2 = 0.6507	889.133	–	1342.6
303.15 K, x2 = 0.6986	896.27	–	1356.3
303.15 K, x2 = 0.7493	903.843	–	1370.7
303.15 K, x2 = 0.7975	910.848	–	1384.2
303.15 K, x2 = 0.8442	917.613	–	1397.1
303.15 K, x2 = 0.8972	925.06	–	1411.5
303.15 K, x2 = 0.9411	931.137	–	1423.4

CCC(C)=O [butanone] + CN(C)C=O
Settings	mass density, [1] [kg/m3]	refractive index, [2]	speed of sound, [1] [m/s]
293.15 K, x2 = 0	805.06	1.37872	1212.6
293.15 K, x2 = 0.0482	811.508	1.3812	1224.5
293.15 K, x2 = 0.1051	819.281	1.3841	1238.6
293.15 K, x2 = 0.148	825.263	1.38629	1249.6
293.15 K, x2 = 0.1915	831.169	1.38843	1262.8
293.15 K, x2 = 0.253	839.789	1.39163	1276.1
293.15 K, x2 = 0.3008	846.349	1.39408	1288.2
293.15 K, x2 = 0.3386	851.673	1.39604	1298
293.15 K, x2 = 0.3915	859.222	1.39872	1311.8
293.15 K, x2 = 0.4432	–	1.40144	–
293.15 K, x2 = 0.4887	873.095	1.40384	1337.4
293.15 K, x2 = 0.5514	882.097	–	1354.1
293.15 K, x2 = 0.5536	–	1.40712	–
293.15 K, x2 = 0.6017	889.386	1.40972	1367.5
293.15 K, x2 = 0.6519	896.759	1.41237	1381.2
293.15 K, x2 = 0.7023	904.135	1.41495	1394.9
293.15 K, x2 = 0.7525	911.634	1.41752	1408.8
293.15 K, x2 = 0.8002	918.668	1.42009	1421.7
293.15 K, x2 = 0.8492	926.05	1.42274	1435.2
293.15 K, x2 = 0.9032	934.175	1.42553	1450.2
293.15 K, x2 = 0.9477	940.9	1.42785	1462.4
298.15 K, x2 = 0	799.78	1.37605	1191.5
298.15 K, x2 = 0.0519	806.811	1.37886	1204.4
298.15 K, x2 = 0.1048	814.011	1.38152	1217.5
298.15 K, x2 = 0.1506	820.379	1.38397	1229.3
298.15 K, x2 = 0.1948	826.51	1.38631	1240.5
298.15 K, x2 = 0.2482	834.008	1.38913	1254.4
298.15 K, x2 = 0.3032	841.593	1.39213	1268.4
298.15 K, x2 = 0.3543	848.769	1.39479	1281.6
298.15 K, x2 = 0.3962	854.829	1.39697	1292.8
298.15 K, x2 = 0.4495	862.429	1.39982	1306.9
298.15 K, x2 = 0.4916	868.442	1.40199	1318
298.15 K, x2 = 0.5536	877.384	1.40522	1334.6
298.15 K, x2 = 0.5946	883.427	1.40739	1345.8
298.15 K, x2 = 0.6572	892.579	1.41063	1362.3
298.15 K, x2 = 0.7034	899.388	1.41301	1375.5
298.15 K, x2 = 0.7461	905.863	1.41516	1387.6
298.15 K, x2 = 0.7965	913.261	1.41779	1401.3
298.15 K, x2 = 0.8488	921.083	1.42048	1415.8
298.15 K, x2 = 0.894	928.027	1.42276	1428.6
298.15 K, x2 = 0.9427	935.405	1.42542	1442.1
303.15 K, x2 = 0	794.55	1.37351	1172
303.15 K, x2 = 0.0496	801.341	1.37623	1184.6
303.15 K, x2 = 0.1068	809.288	1.37911	1199.1
303.15 K, x2 = 0.1478	814.925	1.38113	1209.5
303.15 K, x2 = 0.1836	819.8	1.38314	1218.5
303.15 K, x2 = 0.2521	829.427	1.38686	1236.4
303.15 K, x2 = 0.2943	835.351	1.38911	1248.2
303.15 K, x2 = 0.3532	843.706	1.39202	1262.8
303.15 K, x2 = 0.3938	849.516	1.39409	1273.5
303.15 K, x2 = 0.4538	858.11	1.39728	1289.4
303.15 K, x2 = 0.4969	864.319	1.39967	1301.1
303.15 K, x2 = 0.5486	871.924	1.40242	1315.5
303.15 K, x2 = 0.6028	879.882	1.40517	1330.1
303.15 K, x2 = 0.6517	886.955	1.4078	1343.2
303.15 K, x2 = 0.7023	894.541	1.4105	1357.4
303.15 K, x2 = 0.7483	901.328	1.41287	1369.9
303.15 K, x2 = 0.7995	908.942	1.41553	1384.1
303.15 K, x2 = 0.8514	916.844	1.41823	1399
303.15 K, x2 = 0.8982	923.832	1.42066	1410.9
303.15 K, x2 = 0.946	931.082	1.4232	1425.2
